The conditions of series [1]: literature pilot study; cited from earlier work.
For series [2] the following is noted: cited patent; cited from earlier work.

Counter-ions that a name gives are not always drawn.

`Cn1cc(C(=O)c2ccc(Cl)cc2)cc1C(=O)CN1CCCC1` (as salt: hydrochloride) displayed a melting point of 265 to 267 °C.
On the same count and under the same terms, to `Cn1cc(C(=O)CN)cc1C(=O)c1ccc(Cl)cc1` (as salt: hydrochloride) belongs 290 °C (dec.).
The same measure, in the same setting: to `Cn1cc(C(=O)c2ccc(Cl)cc2)cc1C(=O)CN1CCOCC1` (as salt: hydrochloride) [13-1, 1-[4-(4-Chlorobenzoyl)-1-methyl-1H-pyrrol-2-yl]-2-(1-morpholino)-ethanone hydrochloride] belongs 264 to 267 °C; to `Cn1cc(C(=O)c2ccc(Cl)cc2)cc1C(=O)CN1CCCCC1` [Example 12, 1-[4-(4-Chlorobenzoyl)-1-methyl-1H-pyrrol-2-yl]-2-(1-piperidinyl)-ethanone], 129 to 130 °C.
As to `NCC1(CC(=O)O)CCCCC1` [Gabapentin], in series [1], the “effect on brush-induced and cold allodynia” value was “significantly effective”; the “effect on detection and pain thresholds to static mechanical and hot stimuli” value was “no effect”; the reducing paroxysmal pain result was “particularly effective”; the “relief of ongoing spontaneous pain” value was “moderate and statistically significant relief”.
For the compound `CC1(C)O[C@@H]2[C@@H](CO[C@@]3(COS(N)(=O)=O)OC(C)(C)O[C@@H]23)O1` [topiramate], the “efficacy in an animal model of neuropathic pain” value in series [2] was “evidence of pharmacological activity”.

One may read the melting point as the temperature, or range, at which the solid turns liquid.
